Measurements as given in ChEMBL document CHEMBL1201862, “PubChem BioAssay data set” (2004).
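Assay format: 96-well plates, 48-hour exposure. GI50: concentration for 50% inhibition of growth.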 Active and inactive are the calls of the source. Rule as the data show it: active = GI50 up to about 1.1 µM and inactive = higher.

Key:
Assay in all cases: inhibition of tumour cell growth, NCI panel, 48 h
HOP-62 = tested on: HOP-62
SW-620 = tested on: SW-620
KM12 = tested on: KM12
OVCAR-8 = tested on: OVCAR-8
U-251 = tested on: U-251
HL-60 = tested on: HL-60
HT-29 = tested on: HT-29
DLD-1 = tested on: DLD-1
COLO 205 = tested on: COLO 205
Malme-3M = tested on: Malme-3M
HCT-116 = tested on: HCT-116
SNB-19 = tested on: SNB-19
NCI-H226 = tested on: NCI-H226
RPMI-8226 = tested on: RPMI-8226
HCT-15 = tested on: HCT-15
MOLT-4 = tested on: MOLT-4
DU-145 = tested on: DU-145
NCI/ADR-RES = tested on: NCI/ADR-RES
PC-3 = tested on: PC-3

Row | Structure (SMILES) | GI50 (HOP-62) | GI50 (SW-620) | GI50 (KM12) | GI50 (OVCAR-8) | GI50 (U-251) | GI50 (HL-60) | GI50 (HT-29) | GI50 (DLD-1) | GI50 (COLO 205) | GI50 (Malme-3M) | GI50 (HCT-116) | GI50 (SNB-19) | GI50 (NCI-H226) | GI50 (RPMI-8226) | GI50 (HCT-15) [µM] | GI50 (MOLT-4) | GI50 (DU-145) | GI50 (NCI/ADR-RES) | GI50 (PC-3)
1 | O=C(O)c1oc2ccc([N+](=O)[O-])c3c2c1CCC3 | > 100 µM (inactive) | > 100 µM (inactive) | > 100 µM (inactive) | > 100 µM (inactive) | > 100 µM (inactive) | > 100 µM (inactive) | > 100 µM (inactive) | > 100 µM (inactive) | > 100 µM (inactive) | 54.1 µM (inactive) | > 100 µM (inactive) | > 100 µM (inactive) | > 100 µM (inactive) | – | – | – | – | – | –
2 | NCCNCCNCc1c2ccccc2c(CNCCNCCN)c2ccccc12 | 60.3 µM (inactive) | 90.4 µM (inactive) | 40.4 µM (inactive) | 47.9 µM (inactive) | 51.6 µM (inactive) | 46.1 µM (inactive) | 40.2 µM (inactive) | > 100 µM (inactive) | 52.1 µM (inactive) | 84.9 µM (inactive) | 38 µM (inactive) | – | 50.1 µM (inactive) | 29.6 µM (inactive) | > 100 | 36.5 µM (inactive) | – | – | –
3 | c1ccc(C2CC(c3ccc4ccccc4c3)=Nc3ccccc3S2)cc1 (stereo not drawn) | 17.1 µM (inactive) | 18.8 µM (inactive) | 17.7 µM (inactive) | 16.3 µM (inactive) | 17.3 µM (inactive) | 19.5 µM (inactive) | 17.1 µM (inactive) | > 10 µM (inactive) | – | 19.4 µM (inactive) | 14.8 µM (inactive) | 19.1 µM (inactive) | 19.4 µM (inactive) | 3.26 µM (inactive) | – | 30.4 µM (inactive) | – | – | –
4 | CN(C)CCNC(=O)c1cccc2nc3ccc4ccccc4c3nc12 | 0.147 µM (active) | 0.0181 µM (active) | 0.131 µM (active) | 0.0574 µM (active) | 0.112 µM (active) | 0.114 µM (active) | 0.0499 µM (active) | 0.047 µM (active) | 0.0434 µM (active) | – | 0.0247 µM (active) | 0.132 µM (active) | 0.178 µM (active) | – | 0.0598 | 0.0324 µM (active) | – | – | –
5 | CC(=O)O/C(C)=C\C(=O)O/N=C(\N)c1ccc(C)cc1 | 33.1 µM (inactive) | 39.4 µM (inactive) | 41.8 µM (inactive) | 36.6 µM (inactive) | 19.5 µM (inactive) | 21.1 µM (inactive) | 35.6 µM (inactive) | 18.9 µM (inactive) | 27.9 µM (inactive) | 25.4 µM (inactive) | 19.9 µM (inactive) | 43.7 µM (inactive) | 28.1 µM (inactive) | 31 µM (inactive) | – | 23.1 µM (inactive) | – | – | –
6 | CSC1(C)CC2C(CC1N1CCCCC1)C2(C)C (stereo not drawn) | – | – | > 100 µM (inactive) | > 100 µM (inactive) | > 100 µM (inactive) | > 100 µM (inactive) | > 100 µM (inactive) | > 100 µM (inactive) | > 100 µM (inactive) | > 100 µM (inactive) | > 100 µM (inactive) | – | > 100 µM (inactive) | > 100 µM (inactive) | > 100 | > 100 µM (inactive) | – | – | –
7 | CSc1ccc2c(cc1=O)C(NC(=O)c1cc(O)c(OC(=O)O)c(O)c1)CCc1cc(O)c(O)c(O)c1-2 (stereo not drawn) | 19 µM (inactive) | 14 µM (inactive) | 22.8 µM (inactive) | 28.9 µM (inactive) | 16 µM (inactive) | 10 µM (inactive) | 20 µM (inactive) | 18.5 µM (inactive) | 30.3 µM (inactive) | 35 µM (inactive) | 16.5 µM (inactive) | 50.9 µM (inactive) | 18.8 µM (inactive) | 14.5 µM (inactive) | 16.1 | 16.7 µM (inactive) | – | – | –
8 | COc1cc(C2c3cc4c(cc3[C@@H](Nc3ccc5c(c3)OCCO5)C3COC(=O)[C@H]23)OCO4)cc(OC)c1O (stereo partly drawn) | 0.22 µM (active) | 0.586 µM (active) | 1.85 µM (inactive) | 0.693 µM (active) | 0.516 µM (active) | 0.105 µM (active) | 0.555 µM (active) | 0.692 µM (active) | 0.918 µM (active) | 1.6 µM (inactive) | 0.194 µM (active) | 1.04 µM (active) | 0.295 µM (active) | 0.532 µM (active) | 1.25 | 0.035 µM (active) | 743 nM (active) | 1.07 µM (active) | 918 nM (active)
9 | COc1cc2c3c(c1OC)C1(C=CC(=O)C=C1)C[C@H]3N(C)CC2 [PRONUCIFERINE] | – | > 100 µM (inactive) | > 100 µM (inactive) | > 100 µM (inactive) | > 100 µM (inactive) | – | > 100 µM (inactive) | > 100 µM (inactive) | > 100 µM (inactive) | > 100 µM (inactive) | > 100 µM (inactive) | > 100 µM (inactive) | > 100 µM (inactive) | > 100 µM (inactive) | > 100 | > 100 µM (inactive) | – | – | –
